Measurements published in ChEMBL document CHEMBL5649167, “The SUV4-20 inhibitor A-196 verifies a role for epigenetics in genomic integrity” (Nat Chem Biol, 2017).

Columns and labels:
[1] = Inhibition of human 5-HT3 receptor expressed in HEK293T cells at 10 uM relative to control; details: HEK-293T
B-cell [2] = experiment: Induction of DNA repair in mouse B cells assessed as inhibition in ability of splenic cells to switch from IgM to IgG3 at 10 uM incubated for 4 days in the presence of LPS by flow cytometry analysis (Rvb=5.71%); type: functional; details: 96 h, time 4 day
[3] = Inhibition of H4K20me3 in human U2OS cells assessed as decrease in methylation level incubated for 72 hrs by Hoechst staining based high content microscopy; type: functional, cell-based
U2OS = experiment: Antiproliferative activity against human U2OS cells assessed as change in number of nuclei incubated for 72 hrs by Hoechst staining based high content microscopy; type: functional, cell-based
[4] = biological target: Histone-lysine N-methyltransferase KMT5B (Homo sapiens, UniProt Q4FZB7); experiment: Inhibition of recombinant human 6His-(Tev)-G-SUV420H1 (69 to 335 residues) using Biotin-tagged H4K20me1 and [3H-SAM] as substrate incubated for 2 hrs by scintillation proximity assay
[5] = Inhibition of H4K20me1 in human PC-3 cells assessed as increase in methylation level incubated for 72 hrs by Hoechst staining based high content microscopy; type: functional, cell-based; details: PC-3, 72 h
[6] = Inhibition of H4K20me3 in human PC-3 cells assessed as decrease in methylation level incubated for 72 hrs by Hoechst staining based high content microscopy; type: functional, cell-based; details: PC-3, 72 h
[7] = biological target: Delta-type opioid receptor (Homo sapiens, UniProt P41143); experiment: Inhibition of human Delta-type opioid receptor assessed as inhibition constant
MEF = experiment: Antiproliferative activity against mouse MEF cells assessed as loss of pericentric H4K20me3 at 10 uM incubated for 3 days by immunofluorescence analysis relative to control; type: functional; details: time 3 day
[8] = Inhibition of H4K20me1 in human U2OS cells incubated for 48 hrs by Western blotting analysis; type: functional, cell-based
Adenosine receptor A2a = Adenosine receptor A2a (Homo sapiens, UniProt P29274); experiment: Inhibition of human Adenosine receptor A2a assessed as inhibition constant
B-cell [9] = experiment: Induction of DNA repair in mouse B cells assessed as inhibition in ability of splenic cells to switch from IgM to IgG1 at 1 uM incubated for 2 days in the presence of LPS by flow cytometry analysis (Rvb=9.59%); type: functional; details: 48 h, time 2 day
[10] = biological target: Kappa-type opioid receptor (Homo sapiens, UniProt P41145); experiment: Inhibition of human Kappa-type opioid receptor assessed as inhibition constant
B-cell [11] = experiment: Induction of DNA repair in mouse B cells assessed as inhibition in ability of splenic cells to switch from IgM to IgE at 10 uM incubated for 3 days in the presence of LPS plus IL-4 by flow cytometry analysis (Rvb=1.97%); type: functional; details: 72 h, time 3 day
Substance-K receptor = biological target: T1, Substance-K receptor (Homo sapiens, UniProt P21452); experiment: Inhibition of human Substance-K receptor assessed as inhibition constant
T1 sequence (P21452 whole entry): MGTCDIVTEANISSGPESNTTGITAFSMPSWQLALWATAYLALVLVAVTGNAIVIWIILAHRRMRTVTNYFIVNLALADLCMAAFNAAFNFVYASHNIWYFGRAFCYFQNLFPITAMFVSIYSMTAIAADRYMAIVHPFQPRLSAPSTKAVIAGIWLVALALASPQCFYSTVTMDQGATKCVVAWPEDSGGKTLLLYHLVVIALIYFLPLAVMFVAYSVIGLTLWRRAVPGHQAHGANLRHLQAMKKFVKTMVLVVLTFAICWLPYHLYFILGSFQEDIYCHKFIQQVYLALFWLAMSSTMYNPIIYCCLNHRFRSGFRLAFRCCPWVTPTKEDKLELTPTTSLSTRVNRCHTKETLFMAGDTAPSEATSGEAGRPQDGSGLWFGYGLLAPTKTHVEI

B-cell [12] = experiment: Induction of DNA repair in mouse B cells assessed as inhibition in ability of splenic cells to switch from IgM to IgG1 at 10 uM incubated for 2 days in the presence of LPS by flow cytometry analysis (Rvb=9.59%); type: functional; details: 48 h, time 2 day
HFF [13] = experiment: Cytotoxicity against HFF cells assessed as cell viability upto 12.5 uM incubated for 48 hrs; type: toxicity, cell-based; details: human
[14] = Inhibition of human GABA-gated Cl- channel assessed as inhibition constant
PC-3 = experiment: Antiproliferative activity against human PC-3 cells assessed as change in number of nuclei incubated for 72 hrs by Hoechst staining based high content microscopy; type: functional, cell-based; details: PC-3, 72 h
[15] = biological target: KV channel (voltage-gated potassium channel) (Homo sapiens, UniProt O43525+O43526+O95259+P16389+P17658+P22001+P22459+P22460+P48547+P51787+P56696+Q03721+Q09470+Q12809+Q14003+Q14721+Q16322+Q6PIU1+Q8NCM2+Q8TAE7+Q8TDN1+Q8TDN2+Q92953+Q96KK3+Q96L42+Q96PR1+Q96RP8+Q9BQ31+Q9H252+Q9H3M0+Q9NR82+Q9NS40+Q9NSA2+Q9NZV8+Q9UIX4+Q9UJ96+Q9UK17+Q9ULD8+Q9ULS6+Q9UQ05); experiment: Inhibition of human KV channel at 10 uM relative to control; type: protein assay
[16] = Inhibition of H4K20me2 in human U2OS cells incubated for 48 hrs by Western blotting analysis; type: functional, cell-based
HFF [17] = experiment: Cytotoxicity against HFF cells assessed as cell viability at 1.5 to 100 uM incubated after 72 hrs; type: toxicity, cell-based; details: human, dose 1.5-100 µM
[18] = Inhibition of H4K20me2 in human LNCaP cells incubated for 48 hrs by Western blotting analysis; type: functional, cell-based
Adenosine receptor A1 = biological target: T2, Adenosine receptor A1 (Homo sapiens, UniProt P30542); experiment: Inhibition of human Adenosine receptor A1 assessed as inhibition constant
T2 sequence (P30542 whole entry): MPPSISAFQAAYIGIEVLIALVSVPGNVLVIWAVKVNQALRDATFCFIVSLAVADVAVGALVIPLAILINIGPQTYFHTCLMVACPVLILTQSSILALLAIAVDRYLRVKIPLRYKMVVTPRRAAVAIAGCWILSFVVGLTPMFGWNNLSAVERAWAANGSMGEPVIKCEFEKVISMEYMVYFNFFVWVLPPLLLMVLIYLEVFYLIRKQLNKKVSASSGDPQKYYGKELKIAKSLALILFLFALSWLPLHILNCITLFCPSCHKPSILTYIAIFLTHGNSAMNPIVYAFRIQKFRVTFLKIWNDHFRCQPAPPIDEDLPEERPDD

[19] = biological target: L-type calcium channel (verapamil binding site) (Homo sapiens, UniProt O60840+Q01668+Q13698+Q13936); experiment: Inhibition of human L-type calcium channel verapamil binding site at 10 uM relative to control; type: protein assay
Adenosine receptor A3 = biological target: T3, Adenosine receptor A3 (Homo sapiens, UniProt P0DMS8); experiment: Inhibition of human Adenosine receptor A3 assessed as inhibition constant
T3 sequence (P0DMS8 whole entry): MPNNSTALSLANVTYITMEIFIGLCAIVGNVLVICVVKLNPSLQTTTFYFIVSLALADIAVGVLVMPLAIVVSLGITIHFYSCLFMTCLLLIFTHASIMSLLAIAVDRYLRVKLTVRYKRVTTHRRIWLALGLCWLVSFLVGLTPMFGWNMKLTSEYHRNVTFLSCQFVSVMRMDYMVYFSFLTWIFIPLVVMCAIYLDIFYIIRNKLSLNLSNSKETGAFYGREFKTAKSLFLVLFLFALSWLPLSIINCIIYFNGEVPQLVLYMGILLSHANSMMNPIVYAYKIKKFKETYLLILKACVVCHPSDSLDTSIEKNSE

[20] = Inhibition of H4K20me3 in human U2OS cells incubated for 48 hrs by Western blotting analysis; type: functional, cell-based
B-cell [21] = experiment: Induction of DNA repair in mouse B cells assessed as inhibition in ability of splenic cells to switch from IgM to IgG3 at 1 uM incubated for 4 days in the presence of LPS by flow cytometry analysis (Rvb=5.71%); type: functional; details: 96 h, time 4 day
[22] = Inhibition of H4K20me3 in human LNCaP cells incubated for 48 hrs by Western blotting analysis; type: functional, cell-based
B-cell [23] = experiment: Induction of DNA repair in mouse B cells assessed as inhibition in ability of splenic cells to switch from IgM to IgE at 1 uM incubated for 3 days in the presence of LPS plus IL-4 by flow cytometry analysis (Rvb=1.97%); type: functional; details: 72 h, time 3 day
[24] = Inhibition of H4K20me1 in human LNCaP cells incubated for 48 hrs by Western blotting analysis; type: functional, cell-based
[25] = biological target: Histone-lysine N-methyltransferase KMT5C (Homo sapiens, UniProt Q86Y97); experiment: Inhibition of human SUV420H2 using Biotin-tagged H4K20me1 and [3H-SAM] as substrate incubated for 2 hrs by scintillation proximity assay
[26] = Inhibition of H4K20me1 in human U2OS cells assessed as increase in methylation level incubated for 72 hrs by Hoechst staining based high content microscopy; type: functional, cell-based

Histone-lysine N-methyltransferase KMT5C, sequence (Q86Y97 whole entry): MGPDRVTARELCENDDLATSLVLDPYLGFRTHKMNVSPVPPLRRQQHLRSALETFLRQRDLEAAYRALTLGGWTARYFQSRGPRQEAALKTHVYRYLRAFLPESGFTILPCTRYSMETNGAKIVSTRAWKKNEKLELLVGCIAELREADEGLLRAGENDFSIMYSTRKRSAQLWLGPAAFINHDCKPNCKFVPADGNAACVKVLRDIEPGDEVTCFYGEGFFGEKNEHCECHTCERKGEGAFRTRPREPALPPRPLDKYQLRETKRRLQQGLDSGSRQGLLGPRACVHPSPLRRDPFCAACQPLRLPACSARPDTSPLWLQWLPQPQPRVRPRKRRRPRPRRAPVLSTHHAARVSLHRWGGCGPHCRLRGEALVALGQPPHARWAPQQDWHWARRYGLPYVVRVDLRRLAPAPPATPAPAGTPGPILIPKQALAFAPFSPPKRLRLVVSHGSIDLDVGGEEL
Histone-lysine N-methyltransferase KMT5B, sequence (Q4FZB7 whole entry, the tested form may be a part): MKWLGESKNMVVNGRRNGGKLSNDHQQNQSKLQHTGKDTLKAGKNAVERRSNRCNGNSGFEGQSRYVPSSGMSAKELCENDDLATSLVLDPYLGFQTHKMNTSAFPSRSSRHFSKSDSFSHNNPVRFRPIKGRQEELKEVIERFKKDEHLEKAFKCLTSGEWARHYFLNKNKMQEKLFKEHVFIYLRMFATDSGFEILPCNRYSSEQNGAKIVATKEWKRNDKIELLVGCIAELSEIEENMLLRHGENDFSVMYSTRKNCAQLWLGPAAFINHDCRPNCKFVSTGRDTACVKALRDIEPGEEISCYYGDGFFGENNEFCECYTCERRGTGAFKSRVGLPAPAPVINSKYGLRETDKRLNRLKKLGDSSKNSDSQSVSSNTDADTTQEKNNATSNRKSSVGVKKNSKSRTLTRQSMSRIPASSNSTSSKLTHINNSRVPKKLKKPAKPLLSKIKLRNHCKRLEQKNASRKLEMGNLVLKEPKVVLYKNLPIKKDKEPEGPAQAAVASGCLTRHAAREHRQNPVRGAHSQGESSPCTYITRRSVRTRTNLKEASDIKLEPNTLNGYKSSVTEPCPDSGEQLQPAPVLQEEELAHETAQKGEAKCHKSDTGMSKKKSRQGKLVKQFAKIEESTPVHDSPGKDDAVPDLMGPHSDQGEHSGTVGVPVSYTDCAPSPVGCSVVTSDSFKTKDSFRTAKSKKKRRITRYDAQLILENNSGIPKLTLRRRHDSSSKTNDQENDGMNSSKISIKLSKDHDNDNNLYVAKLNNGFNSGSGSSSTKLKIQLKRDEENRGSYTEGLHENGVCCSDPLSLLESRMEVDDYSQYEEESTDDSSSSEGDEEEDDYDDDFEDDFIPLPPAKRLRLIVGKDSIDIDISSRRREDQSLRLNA
Kappa-type opioid receptor, sequence (P41145 whole entry): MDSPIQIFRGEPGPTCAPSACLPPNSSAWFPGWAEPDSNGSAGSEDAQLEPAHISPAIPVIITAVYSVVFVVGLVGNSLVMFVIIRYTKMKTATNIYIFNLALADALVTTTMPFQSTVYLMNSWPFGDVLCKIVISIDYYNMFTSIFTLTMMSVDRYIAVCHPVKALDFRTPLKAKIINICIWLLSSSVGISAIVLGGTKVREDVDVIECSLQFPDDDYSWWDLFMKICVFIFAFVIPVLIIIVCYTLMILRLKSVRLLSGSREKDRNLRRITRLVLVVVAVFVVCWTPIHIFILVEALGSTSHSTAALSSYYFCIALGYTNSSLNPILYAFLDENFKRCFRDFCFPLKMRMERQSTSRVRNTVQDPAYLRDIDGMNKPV
Adenosine receptor A2a, sequence (P29274 whole entry): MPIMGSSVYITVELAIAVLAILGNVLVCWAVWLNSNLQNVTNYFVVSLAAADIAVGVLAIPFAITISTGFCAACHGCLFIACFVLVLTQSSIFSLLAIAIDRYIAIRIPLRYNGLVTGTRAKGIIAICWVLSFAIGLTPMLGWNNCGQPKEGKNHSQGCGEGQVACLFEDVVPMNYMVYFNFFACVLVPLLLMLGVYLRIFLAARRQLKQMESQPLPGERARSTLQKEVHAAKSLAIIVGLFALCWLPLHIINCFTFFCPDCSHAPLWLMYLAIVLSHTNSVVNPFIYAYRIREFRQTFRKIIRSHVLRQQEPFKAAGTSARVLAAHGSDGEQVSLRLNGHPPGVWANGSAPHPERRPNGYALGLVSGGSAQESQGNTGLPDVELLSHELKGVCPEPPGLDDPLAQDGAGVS
Delta-type opioid receptor, sequence (P41143 whole entry): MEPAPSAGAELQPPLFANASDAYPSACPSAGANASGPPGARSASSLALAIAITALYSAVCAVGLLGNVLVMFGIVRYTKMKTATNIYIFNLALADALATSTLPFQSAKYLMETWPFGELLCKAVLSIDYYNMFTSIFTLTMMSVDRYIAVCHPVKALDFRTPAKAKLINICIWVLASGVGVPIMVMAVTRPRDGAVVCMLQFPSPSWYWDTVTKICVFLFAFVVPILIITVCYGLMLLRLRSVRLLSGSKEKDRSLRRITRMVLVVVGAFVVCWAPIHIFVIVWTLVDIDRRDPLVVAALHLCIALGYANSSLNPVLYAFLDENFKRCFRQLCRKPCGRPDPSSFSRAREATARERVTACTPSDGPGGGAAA

Compound Clc1cc2c(NC3CCCC3)nnc(-c3ccncc3)c2cc1Cl has an inhibition at 10 µM [1] of 32%, an inhibition at 10 µM (B-cell [2]) of 3.85% and an IC50 [3] of 502 nM. The IC50 (U2OS) was > 20000 nM, the IC50 [4] was 25 nM and the IC50 [5] was 686 nM. For the same compound, the IC50 [6] was 521 nM, the Ki [7] was 9000 nM and the Activity (MEF) was 97%. It also gave an IC50 [8] of 736 nM, a Ki (Adenosine receptor A2a) of 28 nM and an inhibition at 1 µM (B-cell [9]) of 5.87%. The Ki [10] was > 10000 nM, the inhibition at 10 µM (B-cell [11]) was 0.73% and the Ki (Substance-K receptor) was 4100 nM. For the same compound, the inhibition at 10 µM (B-cell [12]) was 3.68%, the Activity (HFF [13]) was “Non-Toxic” and the Ki [14] was 1800 nM. For the same compound, the IC50 (PC-3) was > 20000 nM, the inhibition at 10 µM [15] was -18% and the IC50 [16] was 262 nM. The Activity (HFF [17]) was “Non-Toxic”, the IC50 [18] was 511 nM and the Ki (Adenosine receptor A1) was 21 nM. It also gave an inhibition at 10 µM [19] of -4%, a Ki (Adenosine receptor A3) of 2000 nM and an IC50 [20] of 370 nM. It also gave an inhibition at 1 µM (B-cell [21]) of 3.79%, an IC50 [22] of 211 nM and an inhibition at 1 µM (B-cell [23]) of 1.47%. It also gave an IC50 [24] of 799 nM, an IC50 [25] of 144 nM and an IC50 [26] of 1910 nM.
